These results are taken from US12509452B2, “Substituted-isoxazoline-containing aromatic compound, preparation method therefor, herbicidal composition and use thereof” (QINGDAO KINGAGROOT CHEMICAL COMPOUND CO., LTD., priority 2019, dated 2025).

Assay in all cases: weeding effect in post-emergence stage
Common to all, as to type: in vivo

Test [1] relates to Alopecurus japonicus. An excerpt:
(§1) The activity level criteria for plant damage (i.e., growth control rate) are as follows: • Level 5: growth control rate is above 85%; • Level 4: growth control rate is greater than or equal to 60% and less than 85%; • Level 3: growth control rate is greater than or equal to 40% and less than 60%; • Level 2: growth control rate is greater than or equal to 20% and less than 40%; • Level 1: growth control rate is greater than or equal to 5% and less than 20%; • Level 0: growth control rate is less than 5%.
(§2) The above growth control rates are fresh weight control rates.
(§3) Experiment on weeding effect in post-emergence stage:
(§4) Monocotyledonous and dicotyledonous weed seeds (Descurainia sophia, Capsella bursa-pastoris, Abutilon theophrasti, Galium aparine, Stellaria media, Lithospermum arvense, Rorippa indica, Alopecurus aequalis, Alopecurus japonicus, Beckmannia syzigachne, Sclerochloa dura, Conyza Canadensis, Phleum paniculatum, Veronica didyma Tenore, Bromus japonicus, Aegilops tauschii, Phalaris arundinacea, Amaranthus retroflexus, Chenopodium album, Commelina communis, Sonchus arvensis, Convolvulus arvensis, Cirsium setosum, Solanum nigrum, Acalypha australis, Digitaria sanguinalis, Echinochloa crusgalli, Setaria viridis, Setaria glauca, Leptochloa chinensis, Monochoria vaginalis, Sagittaria trifolia, Scirpus juncoides, Cyperus rotundus, Cyperus iria, Cyperus difformis, Fimbristylis, Portulaca oleracea, Xanthium sibiricum, Pharbitis nil, Conyza japonica, etc.) and major crop seeds (wheat, corn, rice, soybean, cotton, oilseed rape, millet, sorghum, potato, sesame, ricinus, etc.) were placed in plastic pots filled with soil, then covered with 0.5-2 cm of soil, allowed to grow in a good greenhouse environment. After 2 weeks of sowing, the test plants were treated in the 2-3 leaf stage. The tested compounds of the present invention were respectively dissolved in acetone, then added with Tween 80 and 1.5 liter/ha of emulsifiable concentrate of methyl oleate as synergist, diluted with a certain amount of water to obtain a solution with a certain concentration, and sprayed with a spray tower onto the plants. After the application, the plants were cultured for 3 weeks in the greenhouse, and then the experimental results of the weeding were counted. The doses of the used compounds were 500, 250, 125, 60, 15, 7.5 g a.i./ha, and the averages were obtained by repeating for three times.

The subject of test [2] is Beckmannia syzigachne.
From the text: as §1, §2, §3, §4

Test [3] relates to Conyza japonica.
From the text: as §1, §2, §3, §4

Test [4] relates to Rorippa indica.
From the text: as §1, §2, §3, §4

Regarding `CCOC(=O)C1(C(F)(F)F)CC(c2cc(-n3c(=O)n(C)c(=S)n(C)c3=O)c(F)cc2Cl)=NO1` (racemic) [Compound 33], in test [1] (dose 125 g a.i./ha), the “weeding effect in post-emergence stage, Alopecurus japonicus (activity level)” value was 5 (Level 5: growth control rate is above 85%). In addition, the “weeding effect in post-emergence stage, Beckmannia syzigachne (activity level)” value in test [2] (dose 125 g a.i./ha) is 5 (Level 5: growth control rate is above 85%). The “weeding effect in post-emergence stage, Conyza japonica (activity level)” value in test [3] (dose 125 g a.i./ha) was 5 (Level 5: growth control rate is above 85%). The “weeding effect in post-emergence stage, Rorippa indica (activity level)” value (shortened to “weeding effect … Rorippa indica (activity level)”) in test [4] (dose 125 g a.i./ha) is 5 (Level 5: growth control rate is above 85%).

Turning to `CCOC(=O)C1(CCF)CC(c2cc(-n3c(=O)n(C)c(=S)n(C)c3=O)c(F)cc2Cl)=NO1` (racemic) [Compound 34], the “weeding effect in post-emergence stage, Alopecurus japonicus (activity level)” value in test [1] (dose 15 g a.i./ha) and in test [1] (dose 125 g a.i./ha) was 5 (Level 5: growth control rate is above 85%) in each case. Further, the “weeding effect in post-emergence stage, Beckmannia syzigachne (activity level)” value in test [2] (dose 15 g a.i./ha) and in test [2] (dose 125 g a.i./ha) was 5 (Level 5: growth control rate is above 85%) each time. Also, the “weeding effect in post-emergence stage, Conyza japonica (activity level)” value in test [3] (dose 15 g a.i./ha) and in test [3] (dose 125 g a.i./ha) was 5 (Level 5: growth control rate is above 85%) each time. For the same compound, the “weeding effect … Rorippa indica (activity level)” value in test [4] (dose 15 g a.i./ha) and in test [4] (dose 125 g a.i./ha) was 5 (Level 5: growth control rate is above 85%) in each case.

Turning to `CCOC(=O)C1(CC(F)F)CC(c2cc(-n3c(=O)n(C)c(=S)n(C)c3=O)c(F)cc2Cl)=NO1` (racemic) [Compound 35], the “weeding effect in post-emergence stage, Alopecurus japonicus (activity level)” value in test [1] (dose 125 g a.i./ha) is 5 (Level 5: growth control rate is above 85%). The “weeding effect in post-emergence stage, Beckmannia syzigachne (activity level)” value in test [2] (dose 125 g a.i./ha) is 5 (Level 5: growth control rate is above 85%). Further, the “weeding effect in post-emergence stage, Conyza japonica (activity level)” value in test [3] (dose 15 g a.i./ha) is 4 (Level 4: growth control rate is greater than or equal to 60% and less than 85%); in test [3] (dose 125 g a.i./ha), 5 (Level 5: growth control rate is above 85%). The “weeding effect … Rorippa indica (activity level)” value in test [4] (dose 15 g a.i./ha) and in test [4] (dose 125 g a.i./ha) was 5 (Level 5: growth control rate is above 85%) each time.

Consider `CCOCC1(C(=O)OCC)CC(c2cc(-n3c(=O)n(C)c(=S)n(C)c3=O)c(F)cc2Cl)=NO1` (racemic) [Compound 43], for which, in test [1] (dose 125 g a.i./ha), the “weeding effect in post-emergence stage, Alopecurus japonicus (activity level)” value is 5 (Level 5: growth control rate is above 85%). Moreover, the “weeding effect in post-emergence stage, Beckmannia syzigachne (activity level)” value in test [2] (dose 125 g a.i./ha) is reported as 5 (Level 5: growth control rate is above 85%). In addition, the “weeding effect in post-emergence stage, Conyza japonica (activity level)” value in test [3] (dose 15 g a.i./ha) is 4 (Level 4: growth control rate is greater than or equal to 60% and less than 85%); in test [3] (dose 125 g a.i./ha), 5 (Level 5: growth control rate is above 85%). The “weeding effect … Rorippa indica (activity level)” value in test [4] (dose 15 g a.i./ha) and in test [4] (dose 125 g a.i./ha) was 5 (Level 5: growth control rate is above 85%) throughout.

As for `CCOC(=O)COCC1(C(=O)OCC)CC(c2cc(-n3c(=O)n(C)c(=S)n(C)c3=O)c(F)cc2Cl)=NO1` (racemic) [Compound 54], the “weeding effect in post-emergence stage, Alopecurus japonicus (activity level)” value in test [1] (dose 125 g a.i./ha) is given as 5 (Level 5: growth control rate is above 85%). Further, in test [2] (dose 125 g a.i./ha), the “weeding effect in post-emergence stage, Beckmannia syzigachne (activity level)” value is recorded as 5 (Level 5: growth control rate is above 85%). Besides, the “weeding effect in post-emergence stage, Conyza japonica (activity level)” value in test [3] (dose 125 g a.i./ha) is reported as 5 (Level 5: growth control rate is above 85%). Besides, the “weeding effect … Rorippa indica (activity level)” value in test [4] (dose 125 g a.i./ha) is on record as 5 (Level 5: growth control rate is above 85%).

Regarding `COC(=O)C1(c2ccccc2)CC(c2cc(-n3c(=O)n(C)c(=S)n(C)c3=O)c(F)cc2Cl)=NO1` (racemic) [Compound 56], the “weeding effect in post-emergence stage, Alopecurus japonicus (activity level)” value in test [1] (dose 125 g a.i./ha) is recorded as 5 (Level 5: growth control rate is above 85%). Also, the “weeding effect in post-emergence stage, Beckmannia syzigachne (activity level)” value in test [2] (dose 125 g a.i./ha) is given as 5 (Level 5: growth control rate is above 85%). Also, the “weeding effect in post-emergence stage, Conyza japonica (activity level)” value in test [3] (dose 125 g a.i./ha) is given as 5 (Level 5: growth control rate is above 85%). Moreover, the “weeding effect … Rorippa indica (activity level)” value in test [4] (dose 125 g a.i./ha) is recorded as 5 (Level 5: growth control rate is above 85%).

As to `COC(=O)C1(Cc2ccccc2)CC(c2cc(-n3c(=O)n(C)c(=S)n(C)c3=O)c(F)cc2Cl)=NO1` (racemic) [Compound 59], the “weeding effect in post-emergence stage, Alopecurus japonicus (activity level)” value in test [1] (dose 125 g a.i./ha) is 5 (Level 5: growth control rate is above 85%). Besides, the “weeding effect in post-emergence stage, Beckmannia syzigachne (activity level)” value in test [2] (dose 125 g a.i./ha) is given as 5 (Level 5: growth control rate is above 85%). The “weeding effect in post-emergence stage, Conyza japonica (activity level)” value in test [3] (dose 125 g a.i./ha) was 5 (Level 5: growth control rate is above 85%). Also, the “weeding effect … Rorippa indica (activity level)” value in test [4] (dose 125 g a.i./ha) is 5 (Level 5: growth control rate is above 85%).

In the case of `CCOC(=O)C1(CC)CC(c2cc(-n3c(=O)cc(C(F)(F)F)n(C)c3=O)c(F)cc2Cl)=NO1` (racemic) [Compound 105], the “weeding effect in post-emergence stage, Alopecurus japonicus (activity level)” value in test [1] (dose 15 g a.i./ha) and in test [1] (dose 125 g a.i./ha) was 5 (Level 5: growth control rate is above 85%) each time. Also, the “weeding effect in post-emergence stage, Beckmannia syzigachne (activity level)” value in test [2] (dose 15 g a.i./ha) and in test [2] (dose 125 g a.i./ha) was 5 (Level 5: growth control rate is above 85%) throughout. Also, the “weeding effect in post-emergence stage, Conyza japonica (activity level)” value in test [3] (dose 15 g a.i./ha) and in test [3] (dose 125 g a.i./ha) was 5 (Level 5: growth control rate is above 85%) in each case. In addition, the “weeding effect … Rorippa indica (activity level)” value in test [4] (dose 15 g a.i./ha) and in test [4] (dose 125 g a.i./ha) was 5 (Level 5: growth control rate is above 85%) throughout.

`CCOC(=O)C1(C2CC2)CC(c2cc(-n3c(=O)cc(C(F)(F)F)n(C)c3=O)c(F)cc2Cl)=NO1` (racemic) [Compound 119]: the “weeding effect in post-emergence stage, Alopecurus japonicus (activity level)” value in test [1] (dose 15 g a.i./ha) and in test [1] (dose 125 g a.i./ha) was 5 (Level 5: growth control rate is above 85%) in each case. The “weeding effect in post-emergence stage, Beckmannia syzigachne (activity level)” value in test [2] (dose 15 g a.i./ha) and in test [2] (dose 125 g a.i./ha) was 5 (Level 5: growth control rate is above 85%) throughout. Moreover, the “weeding effect in post-emergence stage, Conyza japonica (activity level)” value in test [3] (dose 15 g a.i./ha) and in test [3] (dose 125 g a.i./ha) was 5 (Level 5: growth control rate is above 85%) throughout. Further, the “weeding effect … Rorippa indica (activity level)” value in test [4] (dose 15 g a.i./ha) and in test [4] (dose 125 g a.i./ha) was 5 (Level 5: growth control rate is above 85%) throughout.

Regarding `CCOC(=O)C1(C2CCC2)CC(c2cc(-n3c(=O)cc(C(F)(F)F)n(C)c3=O)c(F)cc2Cl)=NO1` (racemic) [Compound 126], in test [1] (dose 125 g a.i./ha), the “weeding effect in post-emergence stage, Alopecurus japonicus (activity level)” value was 5 (Level 5: growth control rate is above 85%). Also, the “weeding effect in post-emergence stage, Beckmannia syzigachne (activity level)” value in test [2] (dose 125 g a.i./ha) is 5 (Level 5: growth control rate is above 85%). In addition, the “weeding effect in post-emergence stage, Conyza japonica (activity level)” value in test [3] (dose 125 g a.i./ha) was 5 (Level 5: growth control rate is above 85%). Besides, the “weeding effect … Rorippa indica (activity level)” value in test [4] (dose 125 g a.i./ha) is on record as 5 (Level 5: growth control rate is above 85%).

As for `COC(=O)C1(F)CC(c2cc(-n3c(=O)cc(C(F)(F)F)n(C)c3=O)c(F)cc2Cl)=NO1` (racemic) [Compound 129], in test [1] (dose 125 g a.i./ha), the “weeding effect in post-emergence stage, Alopecurus japonicus (activity level)” value was 5 (Level 5: growth control rate is above 85%). In test [2] (dose 125 g a.i./ha), the “weeding effect in post-emergence stage, Beckmannia syzigachne (activity level)” value is 5 (Level 5: growth control rate is above 85%). In test [3] (dose 125 g a.i./ha), the “weeding effect in post-emergence stage, Conyza japonica (activity level)” value is 5 (Level 5: growth control rate is above 85%). For the same compound, in test [4] (dose 125 g a.i./ha), the “weeding effect … Rorippa indica (activity level)” value was 5 (Level 5: growth control rate is above 85%).

Turning to `CCOC(=O)C1(CF)CC(c2cc(-n3c(=O)cc(C(F)(F)F)n(C)c3=O)c(F)cc2Cl)=NO1` (racemic) [Compound 132], the “weeding effect in post-emergence stage, Alopecurus japonicus (activity level)” value in test [1] (dose 125 g a.i./ha) was 5 (Level 5: growth control rate is above 85%). In addition, the “weeding effect in post-emergence stage, Beckmannia syzigachne (activity level)” value in test [2] (dose 125 g a.i./ha) is 5 (Level 5: growth control rate is above 85%). For the same compound, the “weeding effect in post-emergence stage, Conyza japonica (activity level)” value in test [3] (dose 125 g a.i./ha) is on record as 5 (Level 5: growth control rate is above 85%). Besides, the “weeding effect … Rorippa indica (activity level)” value in test [4] (dose 125 g a.i./ha) is 5 (Level 5: growth control rate is above 85%).
